Measured values from patent US12234220B2, “Immunomodulatory compounds” (DANA-FARBER CANCER INSTITUTE, INC., priority 2018, dated 2025).
pIC50, pKi: −log10 of the molar value. Like-named read-outs stand apart in the source and are kept apart here.

Target: DDB1AB-CRBN (Homo sapiens, UniProt Q96SW2)
Test: Lenalidomide displacement assay (Atto565-Lenalidomide fluorescence polarization)
Format: binding
Conditions: for pKi: calculated from IC50 with probe Kd of 40 nM, competitive model, read-out: CRBN Binding Ki; for binding affinity with CRBN, in words: fluorescence polarization assay, compared to lenalidomide control, FIG. 1A
Procedure: Compound titrations were incubated for 60 min at RT. The change in fluorescence polarization was monitored using a PHERAstar® FS microplate reader (BMG Labtech) for 1 h in 120 s cycles.

[1] = Table 1, n=2, 10 nM Atto565-Lenalidomide probe, 100 nM DDB1AB-CRBN, read-out: CRBN Binding IC50
[2] = Table 1, n=2, 10 nM Atto565-Lenalidomide probe, 100 nM DDB1AB-CRBN
[3] = refers to Tables 1 and 2, FIG. 1A/1B, read-out: IC50

Sequence of DDB1AB-CRBN (Q96SW2 whole entry): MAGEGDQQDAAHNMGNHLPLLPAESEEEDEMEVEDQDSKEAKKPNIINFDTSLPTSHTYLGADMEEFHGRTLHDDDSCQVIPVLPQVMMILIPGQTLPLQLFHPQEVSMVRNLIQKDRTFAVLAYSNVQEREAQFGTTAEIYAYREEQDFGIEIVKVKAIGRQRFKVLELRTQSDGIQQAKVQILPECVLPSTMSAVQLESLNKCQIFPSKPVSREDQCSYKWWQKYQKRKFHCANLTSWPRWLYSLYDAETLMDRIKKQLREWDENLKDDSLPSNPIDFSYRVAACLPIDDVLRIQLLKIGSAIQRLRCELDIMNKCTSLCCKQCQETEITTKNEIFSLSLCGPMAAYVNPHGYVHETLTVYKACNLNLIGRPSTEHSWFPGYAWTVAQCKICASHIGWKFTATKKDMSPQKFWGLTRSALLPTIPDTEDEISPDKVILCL

pKi (Table 1)	pIC50 [1]	SMILES	further results
4.82	4.28	O=C1CCC(NC(=O)c2cccn(Cc3ccccc3)c2=O)C(=O)N1 (stereo not drawn) [Compound 22, 1-Benzyl-N-(2,6-dioxopiperidin-3-yl)-2-oxo-1,2-dihydropyridine-3-carboxamide]	–
–	–	O=C1CCC(NC(=O)Nc2ccc(O)cn2)C(=O)N1 (stereo not drawn) [Compound 28, 1-(2,6-Dioxopiperidin-3-yl)-3-(5-hydroxypyridin-2-yl)urea]	CRBN Binding IC50 [2]: inactive
–	–	O=C1CCC(NC(=O)c2ccc(OCc3ccc(CN4CCOCC4)cc3)cn2)C(=O)N1 (stereo not drawn) [Compound 11, N-(2,6-dioxopiperidin-3-yl)-5-((4-(morpholinomethyl)benzyl)oxy)picolinamide]	CRBN Binding, probe displacement at single concentration (at 100 μM): 50% at 100 μM
–	–	COc1cccc(C(=O)NC2CCC(=O)NC2=O)n1 (stereo not drawn) [Compound 6, N-(2,6-dioxopiperidin-3-yl)-6-methoxypicolinamide]	CRBN Binding IC50 [2]: Inactive
5.66	–	Nc1ccnc2c(C(=O)NC3CCC(=O)NC3=O)cccc12 (stereo not drawn) [Compound 24, 4-Amino-N-(2,6-dioxopiperidin-3-yl)quinoline-8-carboxamide]	pIC50 [3]: 5.11
5.08	4.54	O=C1CCC(NC(=O)c2ccnc(OCc3ccccc3)n2)C(=O)N1 (stereo not drawn) [Compound 7, 2-(benzyloxy)-N-(2,6-dioxopiperidin-3-yl)pyrimidine-4-carboxamide]	–
–	–	O=C1CCC(NC(=O)Nc2cccc3c2NCC3)C(=O)N1 (stereo not drawn) [Compound 29, 1-(2,6-Dioxopiperidin-3-yl)-3-(indolin-7-yl)urea]	CRBN Binding IC50 [2]: inactive
–	–	O=C1CCC(NC(=O)c2cccc3c(O)ccnc23)C(=O)N1 (stereo not drawn) [Compound 26, N-(2,6-dioxopiperidin-3-yl)-4-hydroxyquinoline-8-carboxamide]	CRBN Binding, probe displacement at single concentration (at 100 μM): 50% at 100 μM; probe displacement (at 100 μM): 50%
4.18	3.64	Cn1cccc(C(=O)NC2CCC(=O)NC2=O)c1=O (stereo not drawn) [Compound 20, N-(2,6-dioxopiperidin-3-yl)-1-methyl-2-oxo-1,2-dihydropyridine-3-carboxamide]	–
–	–	Nc1cccc(C(=O)NC2CCC(=O)NC2=O)n1 (stereo not drawn) [Compound 3, 6-amino-N-(2,6-dioxopiperidin-3-yl)picolinamide]	CRBN Binding, probe displacement at single concentration (at 100 μM): 30% at 100 μM; binding affinity with CRBN, in words: moderate binding affinity
–	–	O=C1CCC(NC(=O)c2cc(Cl)ccn2)C(=O)N1 (stereo not drawn) [Compound 4, 4-chloro-N-(2,6-dioxopiperidin-3-yl)picolinamide]	CRBN Binding, probe displacement at single concentration (at 100 μM): 30% at 100 μM; binding affinity with CRBN, in words: moderate binding affinity
6.10	–	Nc1ccc(C(=O)NC2CCC(=O)NC2=O)c2ncccc12 (stereo not drawn) [Compound 23, 5-Amino-N-(2,6-dioxopiperidin-3-yl) quinoline-8-carboxamide]	pIC50 [3]: 5.54
4.80	4.26	O=C1CCC(NC(=O)c2cccc(OCc3ccccc3)n2)C(=O)N1 (stereo not drawn) [Compound 1, 6-(benzyloxy)-N-(2,6-dioxopiperidin-3-yl)picolinamide]	–
4.82	4.28	O=C1CCC(NC(=O)c2ccc[nH]c2=O)C(=O)N1 (stereo not drawn) [Compound 19, N-(2,6-dioxopiperidin-3-yl)-2-oxo-1,2-dihydropyridine-3-carboxamide]	–
–	–	Nc1ccc(NC(=O)NC2CCC(=O)NC2=O)nc1 (stereo not drawn) [Compound 27, 1-(5-aminopyridin-2-yl)-3-(2,6-dioxopiperidin-3-yl)urea]	CRBN Binding, probe displacement at single concentration (at 100 μM): 50% at 100 μM
4.69	4.14	O=C1CCC(NC(=O)c2cccn(-c3ccccc3)c2=O)C(=O)N1 (stereo not drawn) [Compound 21, N-(2,6-dioxopiperidin-3-yl)-2-oxo-1-phenyl-1,2-dihydropyridine-3-carboxamide]	–
4.97	4.42	O=C1CCC(NC(=O)c2cccc3nc[nH]c23)C(=O)N1 (stereo not drawn) [Compound 31, N-(2,6-dioxopiperidin-3-yl)-1H-benzo[d]imidazole-4-carboxamide]	–
4.49	3.95	O=C1CCC(NC(=O)c2ccnc(NCc3ccccc3)n2)C(=O)N1 (stereo not drawn) [Compound 5, 2-(benzylamino)-N-(2,6-dioxopiperidin-3-yl)pyrimidine-4-carboxamide]	binding affinity with CRBN, in words: moderate binding affinity
5.30	4.76	Nc1cnc2c(C(=O)NC3CCC(=O)NC3=O)cccc2c1 (stereo not drawn) [Compound 25, 3-Amino-N-(2,6-dioxopiperidin-3-yl)quinoline-8-carboxamide]	–
5.40	4.85	O=C1CCC(NC(=O)c2cccc3cccnc23)C(=O)N1 (stereo not drawn) [Compound 8, N-(2,6-dioxopiperidin-3-yl)quinoline-8-carboxamide]	–
–	–	O=C1CCC(NC(=O)c2cccc3c2NCC3)C(=O)N1 (stereo not drawn) [Compound 30, N-(2,6-dioxopiperidin-3-yl)indoline-7-carboxamide]	CRBN Binding, probe displacement at single concentration (at 100 μM): 50% at 100 μM
4.94	4.40	O=C1CCC(NC(=O)c2cccc(OCc3ccc(CN4CCOCC4)cc3)n2)C(=O)N1 (stereo not drawn) [Compound 32, N-(2,6-dioxopiperidin-3-yl)-6-((4-(morpholinomethyl)benzyl)oxy)picolinamide]	–
